From PubChem BioAssay (NCI)
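Method: 48-hour compound exposure of cells in 96-well plates, five concentrations, linear interpolation of endpoints. At the TGI there is no net growth.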

Tests used:
Test in all cases: NCI-60 cell line screen, 48 h
786-0 renal = test system: 786-0 renal
A498 renal = test system: A498 renal
A549 NSCLC = test system: A549 NSCLC
ACHN renal = test system: ACHN renal
BT-549 breast = test system: BT-549 breast
CAKI-1 renal = test system: CAKI-1 renal
CCRF-CEM leukemia = test system: CCRF-CEM leukemia
COLO 205 colon = test system: COLO 205 colon
DU-145 prostate = test system: DU-145 prostate
EKVX NSCLC = test system: EKVX NSCLC
HCT-116 colon = test system: HCT-116 colon
HCT-15 colon = test system: HCT-15 colon
HL-60(TB) leukemia = test system: HL-60(TB) leukemia
HOP-92 NSCLC = test system: HOP-92 NSCLC
HS 578T breast = test system: HS 578T breast
HT29 colon = test system: HT29 colon
IGROV1 ovarian = test system: IGROV1 ovarian
K-562 leukemia = test system: K-562 leukemia
KM12 colon = test system: KM12 colon
LOX IMVI melanoma = test system: LOX IMVI melanoma
M14 melanoma = test system: M14 melanoma
MCF7 breast = test system: MCF7 breast
MDA-MB-231 breast = test system: MDA-MB-231 breast
MDA-MB-435 = test system: MDA-MB-435
MDA-N = test system: MDA-N
MOLT-4 leukemia = test system: MOLT-4 leukemia
NCI-H226 lung = test system: NCI-H226 lung
NCI-H23 lung = test system: NCI-H23 lung
NCI-H460 lung = test system: NCI-H460 lung
NCI-H522 lung = test system: NCI-H522 lung
NCI/ADR-RES ovarian = test system: NCI/ADR-RES ovarian
OVCAR-3 ovarian = test system: OVCAR-3 ovarian
OVCAR-4 ovarian = test system: OVCAR-4 ovarian
OVCAR-5 ovarian = test system: OVCAR-5 ovarian
OVCAR-8 ovarian = test system: OVCAR-8 ovarian
PC-3 prostate = test system: PC-3 prostate
RPMI-8226 leukemia = test system: RPMI-8226 leukemia
RXF 393 renal = test system: RXF 393 renal
SF-268 CNS = test system: SF-268 CNS
SF-295 CNS = test system: SF-295 CNS
SF-539 CNS = test system: SF-539 CNS
SK-MEL-2 melanoma = test system: SK-MEL-2 melanoma
SK-MEL-5 melanoma = test system: SK-MEL-5 melanoma
SK-OV-3 ovarian = test system: SK-OV-3 ovarian
SN12C renal = test system: SN12C renal
SNB-19 CNS = test system: SNB-19 CNS
SNB-75 CNS = test system: SNB-75 CNS
SR leukemia = test system: SR leukemia
SW-620 colon = test system: SW-620 colon
T-47D breast = test system: T-47D breast
TK-10 renal = test system: TK-10 renal
U251 CNS = test system: U251 CNS
UACC-257 melanoma = test system: UACC-257 melanoma
UACC-62 melanoma = test system: UACC-62 melanoma
UO-31 renal = test system: UO-31 renal
HCC-2998 colon = test system: HCC-2998 colon
HOP-62 NSCLC = test system: HOP-62 NSCLC
SK-MEL-28 melanoma = test system: SK-MEL-28 melanoma
MALME-3M melanoma = test system: MALME-3M melanoma

With `COc1ccc(NC=O)c(C(=O)CCNC(C)=O)c1` the TGI (786-0 renal) was greater than 100 µM, the TGI (A498 renal) was greater than 100 µM and the TGI (A549 NSCLC) was greater than 100 µM. The TGI (ACHN renal) was greater than 100 µM, the TGI (BT-549 breast) was greater than 100 µM and the TGI (CAKI-1 renal) was greater than 100 µM. It also gave a TGI (CCRF-CEM leukemia) greater than 100 µM, a TGI (COLO 205 colon) greater than 100 µM and a TGI (DU-145 prostate) greater than 100 µM. It also gave a TGI (EKVX NSCLC) greater than 100 µM, a TGI (HCT-116 colon) greater than 100 µM and a TGI (HCT-15 colon) greater than 100 µM. It also gave a TGI (HL-60(TB) leukemia) greater than 100 µM, a TGI (HOP-92 NSCLC) greater than 100 µM and a TGI (HS 578T breast) greater than 100 µM. It also gave a TGI (HT29 colon) greater than 100 µM, a TGI (IGROV1 ovarian) greater than 100 µM and a TGI (K-562 leukemia) greater than 100 µM. For the same molecule, the TGI (KM12 colon) was greater than 100 µM, the TGI (LOX IMVI melanoma) was greater than 100 µM and the TGI (M14 melanoma) was greater than 100 µM. For the same molecule, the TGI (MCF7 breast) was greater than 100 µM, the TGI (MDA-MB-231 breast) was greater than 100 µM and the TGI (MDA-MB-435) was greater than 100 µM. The TGI (MDA-N) was greater than 100 µM, the TGI (MOLT-4 leukemia) was greater than 100 µM and the TGI (NCI-H226 lung) was greater than 100 µM. It also gave a TGI (NCI-H23 lung) greater than 100 µM, a TGI (NCI-H460 lung) greater than 100 µM and a TGI (NCI-H522 lung) greater than 100 µM. The TGI (NCI/ADR-RES ovarian) was greater than 100 µM, the TGI (OVCAR-3 ovarian) was greater than 100 µM and the TGI (OVCAR-4 ovarian) was greater than 100 µM. The TGI (OVCAR-5 ovarian) was greater than 100 µM, the TGI (OVCAR-8 ovarian) was greater than 100 µM and the TGI (PC-3 prostate) was greater than 100 µM. For the same molecule, the TGI (RPMI-8226 leukemia) was greater than 100 µM, the TGI (RXF 393 renal) was greater than 100 µM and the TGI (SF-268 CNS) was greater than 100 µM. The TGI (SF-295 CNS) was greater than 100 µM, the TGI (SF-539 CNS) was greater than 100 µM and the TGI (SK-MEL-2 melanoma) was greater than 100 µM. For the same molecule, the TGI (SK-MEL-5 melanoma) was greater than 100 µM, the TGI (SK-OV-3 ovarian) was greater than 100 µM and the TGI (SN12C renal) was greater than 100 µM. It also gave a TGI (SNB-19 CNS) greater than 100 µM, a TGI (SNB-75 CNS) greater than 100 µM and a TGI (SR leukemia) greater than 100 µM. For the same molecule, the TGI (SW-620 colon) was greater than 100 µM, the TGI (T-47D breast) was greater than 100 µM and the TGI (TK-10 renal) was greater than 100 µM. The TGI (U251 CNS) was greater than 100 µM, the TGI (UACC-257 melanoma) was greater than 100 µM and the TGI (UACC-62 melanoma) was greater than 100 µM. For the same molecule, the TGI (UO-31 renal) was greater than 100 µM.

`C[C@@]1(O)C2C3CC4C5C3C1[C@](O)(C42)[C@H]5Br` (some centres not stated) showed a TGI (786-0 renal) greater than 100 µM, a TGI (A498 renal) greater than 100 µM and a TGI (A549 NSCLC) greater than 100 µM. For the same molecule, the TGI (ACHN renal) was greater than 100 µM, the TGI (BT-549 breast) was greater than 100 µM and the TGI (CAKI-1 renal) was greater than 100 µM. It also gave a TGI (CCRF-CEM leukemia) greater than 100 µM, a TGI (COLO 205 colon) greater than 100 µM and a TGI (DU-145 prostate) greater than 100 µM. For the same molecule, the TGI (EKVX NSCLC) was greater than 100 µM, the TGI (HCC-2998 colon) was greater than 100 µM and the TGI (HCT-116 colon) was greater than 100 µM. The TGI (HCT-15 colon) was greater than 100 µM, the TGI (HL-60(TB) leukemia) was greater than 100 µM and the TGI (HOP-62 NSCLC) was greater than 100 µM. It also gave a TGI (HOP-92 NSCLC) greater than 100 µM, a TGI (HS 578T breast) greater than 100 µM and a TGI (HT29 colon) greater than 100 µM. The TGI (IGROV1 ovarian) was greater than 100 µM, the TGI (K-562 leukemia) was greater than 100 µM and the TGI (KM12 colon) was greater than 100 µM. For the same molecule, the TGI (LOX IMVI melanoma) was greater than 100 µM, the TGI (M14 melanoma) was greater than 100 µM and the TGI (MCF7 breast) was greater than 100 µM. The TGI (MDA-MB-231 breast) was greater than 100 µM, the TGI (MDA-MB-435) was greater than 100 µM and the TGI (MDA-N) was greater than 100 µM. The TGI (MOLT-4 leukemia) was greater than 100 µM, the TGI (NCI-H23 lung) was greater than 100 µM and the TGI (NCI-H460 lung) was greater than 100 µM. It also gave a TGI (NCI-H522 lung) greater than 100 µM, a TGI (NCI/ADR-RES ovarian) greater than 100 µM and a TGI (OVCAR-3 ovarian) greater than 100 µM. The TGI (OVCAR-4 ovarian) was greater than 100 µM, the TGI (OVCAR-5 ovarian) was greater than 100 µM and the TGI (OVCAR-8 ovarian) was greater than 100 µM. For the same molecule, the TGI (PC-3 prostate) was greater than 100 µM, the TGI (RXF 393 renal) was greater than 100 µM and the TGI (SF-268 CNS) was greater than 100 µM. It also gave a TGI (SF-295 CNS) greater than 100 µM, a TGI (SF-539 CNS) greater than 100 µM and a TGI (SK-MEL-2 melanoma) greater than 100 µM. The TGI (SK-MEL-28 melanoma) was greater than 100 µM, the TGI (SK-MEL-5 melanoma) was greater than 100 µM and the TGI (SN12C renal) was greater than 100 µM. It also gave a TGI (SNB-19 CNS) greater than 100 µM, a TGI (SR leukemia) greater than 100 µM and a TGI (SW-620 colon) greater than 100 µM. For the same molecule, the TGI (T-47D breast) was greater than 100 µM, the TGI (TK-10 renal) was greater than 100 µM and the TGI (U251 CNS) was greater than 100 µM. The TGI (UACC-257 melanoma) was greater than 100 µM, the TGI (UACC-62 melanoma) was greater than 100 µM and the TGI (UO-31 renal) was greater than 100 µM.

For `N#Cc1nc(/C=C/c2nc(C#N)c(N)o2)oc1N`, the TGI (786-0 renal) was greater than 10 µM, the TGI (A549 NSCLC) was greater than 10 µM and the TGI (ACHN renal) was greater than 10 µM. For the same molecule, the TGI (BT-549 breast) was greater than 10 µM, the TGI (CAKI-1 renal) was greater than 10 µM and the TGI (CCRF-CEM leukemia) was greater than 10 µM. The TGI (COLO 205 colon) was greater than 10 µM, the TGI (DU-145 prostate) was greater than 10 µM and the TGI (EKVX NSCLC) was greater than 10 µM. It also gave a TGI (HCC-2998 colon) greater than 10 µM, a TGI (HCT-116 colon) greater than 10 µM and a TGI (HCT-15 colon) greater than 10 µM. It also gave a TGI (HL-60(TB) leukemia) greater than 10 µM, a TGI (HOP-62 NSCLC) greater than 10 µM and a TGI (HOP-92 NSCLC) greater than 10 µM. It also gave a TGI (HS 578T breast) greater than 10 µM, a TGI (HT29 colon) greater than 10 µM and a TGI (IGROV1 ovarian) greater than 10 µM. For the same molecule, the TGI (K-562 leukemia) was greater than 10 µM, the TGI (KM12 colon) was greater than 10 µM and the TGI (LOX IMVI melanoma) was greater than 10 µM. It also gave a TGI (M14 melanoma) greater than 10 µM, a TGI (MALME-3M melanoma) greater than 10 µM and a TGI (MCF7 breast) greater than 10 µM. It also gave a TGI (MDA-MB-231 breast) greater than 10 µM, a TGI (MDA-MB-435) greater than 10 µM and a TGI (MDA-N) greater than 10 µM. The TGI (NCI-H226 lung) was greater than 10 µM, the TGI (NCI-H23 lung) was greater than 10 µM and the TGI (NCI-H460 lung) was greater than 10 µM. The TGI (NCI-H522 lung) was greater than 10 µM, the TGI (NCI/ADR-RES ovarian) was greater than 10 µM and the TGI (OVCAR-4 ovarian) was greater than 10 µM. The TGI (OVCAR-8 ovarian) was greater than 10 µM, the TGI (PC-3 prostate) was greater than 10 µM and the TGI (RPMI-8226 leukemia) was greater than 10 µM. For the same molecule, the TGI (RXF 393 renal) was greater than 10 µM, the TGI (SF-268 CNS) was greater than 10 µM and the TGI (SF-295 CNS) was greater than 10 µM. It also gave a TGI (SF-539 CNS) greater than 10 µM, a TGI (SK-MEL-28 melanoma) greater than 10 µM and a TGI (SK-MEL-5 melanoma) greater than 10 µM. For the same molecule, the TGI (SK-OV-3 ovarian) was greater than 10 µM, the TGI (SN12C renal) was greater than 10 µM and the TGI (SNB-19 CNS) was greater than 10 µM. The TGI (SNB-75 CNS) was greater than 10 µM, the TGI (SR leukemia) was greater than 10 µM and the TGI (SW-620 colon) was greater than 10 µM. It also gave a TGI (T-47D breast) greater than 10 µM, a TGI (TK-10 renal) greater than 10 µM and a TGI (UACC-257 melanoma) greater than 10 µM. The TGI (UACC-62 melanoma) was greater than 10 µM and the TGI (UO-31 renal) was greater than 10 µM.
